Source: the supplement of paper PMC11061612

Tests used:
Assay in all cases: Bliss excess, mean over the matrix (fraction); higher = more synergy
[1] = test system: EJM (Plasma Cell Myeloma)
Method in brief: (§1)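 Cell lines grown in DMEM/F12 or RPMI with 10% FBS were plated in 1536-well plates and held 24 hours at 37°C, 5% CO2 before 72 hours of exposure to two-drug dose matrices, with DMSO typically at 0.2%. CellTiter-Glo 2.0 luminescence gave viability, which was converted to inhibition. Vehicle wells were set to 0 and blank wells to 1. Combination Emax is the second-highest inhibition in the matrix, and Bliss excess is the observed combination effect minus the expected EA + EB − EA·EB, where EA and EB are the single-agent effects.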

[2] = test system: EFO-21 (Ovarian Carcinoma)
Method in brief: as §1

[3] = test system: MDA-MB-453 (Breast Carcinoma)
Method in brief: as §1

[4] = test system: HAL-01 (B-Lymphoblastic Leukemia)
Method in brief: as §1

| SMILES | Bliss excess [1] | Bliss excess [2] | Bliss excess [3] | Bliss excess [4] |
| --- | --- | --- | --- | --- |
| CC1(C)CCC(CN2CCN(c3ccc(C(=O)NS(=O)(=O)c4ccc(NCC5CCOCC5)c([N+](=O)[O-])c4)c(Oc4cnc5[nH]ccc5c4)c3)CC2)=C(c2ccc(Cl)cc2)C1 [Venetoclax] + Cc1cc2ncnn2cc1Nc1ncc2c(n1)n(C1CCOCC1)c(=O)n2C [AZD7648] (first compound max 1 µM, 7x7, partner max 10 µM) | 0.0292 | -0.0212 | -0.0037 | -0.022 |
| O=C(c1cc(Cc2n[nH]c(=O)c3ccccc23)ccc1F)N1CCN(C(=O)C2CC2)CC1 [Olaparib] + Cc1c2c(nn1C)CSCc1cc(n(C)n1)CSc1cc(c3ccccc3c1)OCCCc1c(C(=O)O)n(C)c3c-2c(Cl)ccc13 [AZD5991] (first compound max 10 µM, 7x7, partner max 1 µM) |  | -0.0533 | -0.0038 | -0.0229 |
| CC1(C)CCC(CN2CCN(c3ccc(C(=O)NS(=O)(=O)c4ccc(NCC5CCOCC5)c([N+](=O)[O-])c4)c(Oc4cnc5[nH]ccc5c4)c3)CC2)=C(c2ccc(Cl)cc2)C1 [Venetoclax] + CN(C)CCCOc1ccc(-c2ccc3ncc4c(c3c2)n(C2CCOCC2)c(=O)n4C)cn1 [AZD0156] (first compound max 1 µM, 7x7, partner max 1 µM) | -0.0047 | -0.0375 | -0.0225 | 0.0439 |
| NC1(C(=O)N[C@@H](CCO)c2ccc(Cl)cc2)CCN(c2ncnc3[nH]ccc23)CC1 [Capivasertib] + CC(=O)c1c(C)c2cnc(Nc3ccc(N4CCNCC4)cn3)nc2n(C2CCCC2)c1=O [Palbociclib] (first compound max 10 µM, 7x7, partner max 10 µM) | -0.0189 | -0.0533 | 0.0753 | -0.0425 |
| CC(=O)c1c(C)c2cnc(Nc3ccc(N4CCNCC4)cn3)nc2n(C2CCCC2)c1=O [Palbociclib] + Cc1c2c(nn1C)CSCc1cc(n(C)n1)CSc1cc(c3ccccc3c1)OCCCc1c(C(=O)O)n(C)c3c-2c(Cl)ccc13 [AZD5991] (first compound max 10 µM, 7x7, partner max 1 µM) | -0.0517 | -0.0458 | -0.0218 | 0.0597 |
| O=C(c1cc(Cc2n[nH]c(=O)c3ccccc23)ccc1F)N1CCN(C(=O)C2CC2)CC1 [Olaparib] + CN(CC[C@H](CSC1=CC=CC=C1)NC2=C(C=C(C=C2)S(=O)(=O)NC(=O)C3=CC=C(C=C3)N4CCC(CC4)[C@H](C5=CC=CC=C5C6=CC=C(C=C6)Cl)O)S(=O)(=O)C(F)(F)F)CCO [AZD4320] (first compound max 10 µM, 7x7, partner max 1 µM) |  | -0.0415 | -0.0342 | 0.0353 |
| Cc1c2c(nn1C)CSCc1cc(n(C)n1)CSc1cc(c3ccccc3c1)OCCCc1c(C(=O)O)n(C)c3c-2c(Cl)ccc13 [AZD5991] + CS(=O)(=O)CCNCc1ccc(-c2ccc3ncnc(Nc4ccc(OCc5cccc(F)c5)c(Cl)c4)c3c2)o1 [Lapatinib] (first compound max 1 µM, 7x7, partner max 10 µM) |  | 0.0347 | 0.0116 | 0.162 |
| C=CCn1c(=O)c2cnc(Nc3ccc(N4CCN(C)CC4)cc3)nc2n1-c1cccc(C(C)(C)O)n1 [AZD1775] + C[C@@H]1COCCN1C2=NC(=NC(=C2)C3(CC3)[S@](=N)(=O)C)C4=C5C=CNC5=NC=C4 [AZD6738] (first compound max 1 µM, partner max 10 µM) | -0.0079 | -0.0492 | 0.0214 |  |
| CC1(C)CCC(CN2CCN(c3ccc(C(=O)NS(=O)(=O)c4ccc(NCC5CCOCC5)c([N+](=O)[O-])c4)c(Oc4cnc5[nH]ccc5c4)c3)CC2)=C(c2ccc(Cl)cc2)C1 [Venetoclax] + CS(=O)(=O)CCNCc1ccc(-c2ccc3ncnc(Nc4ccc(OCc5cccc(F)c5)c(Cl)c4)c3c2)o1 [Lapatinib] (first compound max 1 µM, 7x7, partner max 10 µM) |  | -0.0323 | -0.0106 | 0.102 |
| C[C@@H](Nc1cc(F)cc(F)c1)c1cc(C(=O)N(C)C)cc2c(=O)cc(N3CCOCC3)oc12 [AZD8186] + CC(=O)c1c(C)c2cnc(Nc3ccc(N4CCNCC4)cn3)nc2n(C2CCCC2)c1=O [Palbociclib] (first compound max 10 µM, 7x7, partner max 10 µM) |  | -0.0175 | 0.0491 | -0.0022 |
| C[C@@H]1COCCN1c1cc(C2([S@](C)(=N)=O)CC2)nc(-c2ccnc3[nH]ccc23)n1 [AZD6738] + Nc1ccn([C@@H]2O[C@H](CO)[C@@H](O)C2(F)F)c(=O)n1 [Gemcitabine] (first compound max 10 µM, 7x7, partner max 0.3 µM) |  | 0.0847 | -0.0251 | -0.0031 |
| C[C@@H](Nc1cc(F)cc(F)c1)c1cc(C(=O)N(C)C)cc2c(=O)cc(N3CCOCC3)oc12 [AZD8186] + C1CN(CCC1(C(=O)N[C@@H](CCO)C2=CC=C(C=C2)Cl)N)C3=NC=NC4=C3C=CN4 [AZD5363] (first compound max 10 µM, 7x7, partner max 10 µM) |  | -0.0376 | 0.0219 | -0.0657 |
| O=C(c1cc(Cc2n[nH]c(=O)c3ccccc23)ccc1F)N1CCN(C(=O)C2CC2)CC1 [Olaparib] + COc1nnc2ccc(N3CCC(c4ccc(OCCN5CCN(C)C(=O)[C@H]5C)cc4)CC3)nn12 [AZD5153] (first compound max 10 µM, 7x7, partner max 1 µM) |  | -0.0719 | -0.0483 | 0.007 |
| Cc1c2c(nn1C)CSCc1cc(n(C)n1)CSc1cc(c3ccccc3c1)OCCCc1c(C(=O)O)n(C)c3c-2c(Cl)ccc13 [AZD5991] + Nc1ccn([C@@H]2O[C@H](CO)[C@@H](O)C2(F)F)c(=O)n1 [Gemcitabine] (first compound max 1 µM, 7x7, partner max 0.3 µM) |  | -0.0204 | 0.0145 | 0.0025 |
| CS(=O)(=O)CCNCc1ccc(-c2ccc3ncnc(Nc4ccc(OCc5cccc(F)c5)c(Cl)c4)c3c2)o1 [Lapatinib] + Cn1cnc2c(F)c(Nc3ccc(Br)cc3Cl)c(C(=O)NOCCO)cc21 [Selumetinib] (first compound max 10 µM, 7x7, partner max 10 µM) |  | 0.0118 | -0.0421 | 0.0997 |
| C=CCn1c(=O)c2cnc(Nc3ccc(N4CCN(C)CC4)cc3)nc2n1-c1cccc(C(C)(C)O)n1 [AZD1775] + Nc1ccn([C@@H]2O[C@H](CO)[C@@H](O)C2(F)F)c(=O)n1 [Gemcitabine] (first compound max 1 µM, partner max 0.3 µM) |  | -0.0653 | -0.0309 | -0.0026 |
| O=C(c1cc(Cc2n[nH]c(=O)c3ccccc23)ccc1F)N1CCN(C(=O)C2CC2)CC1 [Olaparib] + CC1(C)CCC(CN2CCN(c3ccc(C(=O)NS(=O)(=O)c4ccc(NCC5CCOCC5)c([N+](=O)[O-])c4)c(Oc4cnc5[nH]ccc5c4)c3)CC2)=C(c2ccc(Cl)cc2)C1 [Venetoclax] (first compound max 10 µM, 7x7, partner max 1 µM) |  | -0.0495 | -0.0323 | 0.122 |
| Cc1nc(-c2cn3c(n2)-c2ccc(-c4cnn(C(C)(C)C(N)=O)c4)cc2OCC3)n(C(C)C)n1 [Taselisib] + O=C(Nc1ccc2[nH]nc(-c3ccncc3)c2c1)[C@@H]1CCN(CC(=O)N2CCN(c3ccc(-c4ncccn4)cc3)CC2)C1 [SCH772984] (first compound max 10 µM, 7x7, partner max 5 µM) |  | 0.0446 | 0.0207 | -0.0711 |
| C[C@@H]1COCCN1c1cc(C2([S@](C)(=N)=O)CC2)nc(-c2ccnc3[nH]ccc23)n1 [AZD6738] + C1CC(C1)(C(=O)[O-])C(=O)[O-].N.N.[Pt+2] [Carboplatin] (first compound max 10 µM, 7x7, partner max 10 µM) |  | -0.0606 | -0.0327 | -0.0435 |
| C[C@@H](Oc1cc(-c2cnn(C3CCNCC3)c2)cnc1N)c1c(Cl)ccc(F)c1Cl [Crizotinib] + CC1=C(C(=CC=C1)Cl)NC(=O)C2=CN=C(S2)NC3=CC(=NC(=N3)C)N4CCN(CC4)CCO [Dasatinib] (first compound max 10 µM, 7x7, partner max 2 µM) |  | 0.0054 | -0.0494 | -0.0172 |
| CN(CCO)CC[C@H](CSc1ccccc1)Nc1ccc(S(=O)(=O)NC(=O)c2ccc(N3CCC([C@@H](O)c4ccccc4-c4ccc(Cl)cc4)CC3)cc2)cc1S(=O)(=O)C(F)(F)F [AZD4320] + CS(=O)(=O)CCNCc1ccc(-c2ccc3ncnc(Nc4ccc(OCc5cccc(F)c5)c(Cl)c4)c3c2)o1 [Lapatinib] (first compound max 1 µM, 7x7, partner max 10 µM) |  | -0.0104 | -0.0554 | 0.193 |
| CS(=O)(=O)CCNCc1ccc(-c2ccc3ncnc(Nc4ccc(OCc5cccc(F)c5)c(Cl)c4)c3c2)o1 [Lapatinib] + NC1(c2ccc(-c3nc4ccn5c(=O)[nH]nc5c4cc3-c3ccccc3)cc2)CCC1 [MK-2206] (first compound max 10 µM, 7x7, partner max 10 µM) |  | 0.0024 | 0.0474 | 0.0687 |
| Cc1c2c(nn1C)CSCc1cc(n(C)n1)CSc1cc(c3ccccc3c1)OCCCc1c(C(=O)O)n(C)c3c-2c(Cl)ccc13 [AZD5991] + CC(=O)O[C@H]1C(=O)[C@@]2(C)[C@H]([C@H](OC(=O)c3ccccc3)[C@]3(O)C[C@H](OC(=O)[C@H](O)[C@@H](NC(=O)c4ccccc4)c4ccccc4)C(C)=C1C3(C)C)[C@]1(OC(C)=O)CO[C@@H]1C[C@@H]2O [Paclitaxel] (first compound max 1 µM, 7x7, partner max 3 µM) |  | 0.0151 | 0.231 | -0.0179 |
| C=CCn1c(=O)c2cnc(Nc3ccc(N4CCN(C)CC4)cc3)nc2n1-c1cccc(C(C)(C)O)n1 [AZD1775] + CCc1c2c(nc3ccc(O)cc13)-c1cc3c(c(=O)n1C2)COC(=O)[C@]3(O)CC [SN-38] (first compound max 1 µM, partner max 0.3 µM) |  | -0.0193 | -0.0113 | -0.0249 |
| C[C@@H](Oc1cc(-c2cnn(C3CCNCC3)c2)cnc1N)c1c(Cl)ccc(F)c1Cl [Crizotinib] + Cn1cnc2c(F)c(Nc3ccc(Br)cc3Cl)c(C(=O)NOCCO)cc21 [Selumetinib] (first compound max 10 µM, 7x7, partner max 10 µM) |  | -0.0233 | -0.0374 | -0.0267 |
